The subject of test [1] is Listeria innocua. Put plainly: Inactivation of bacteria in simulated wash water. It counts as cell-based. How it is done:
The activity and inactivation of bacteria in simulated wash water exposed to the functionalized particles and conventional chlorine sanitizers were evaluated and compared. More than a 5-log reduction of Listeria innocua in wash water was obtained after a 0.5-min exposure to YCWPs based sanitizer at the concentration of 0.1 mg/mL. In comparison, the conventional chlorine-based sanitizer (sodium hypochlorite) needed 1.5 min to achieve a 5-log reduction. In the presence of organic matter (COD=2000 mg/L), more than 5 log reduction of Listeria innocua in wash water was obtained after 5 min exposure to YCWPs based sanitizer.

Test [2] deals with L. innocua 3-day biofilm. Nature of the test: Inactivation of 3-day cultured biofilm on plastic surface, plate counting assay. It counts as cell-based, Listeria innocua. As to conditions: 1-hour exposure. How it is done: FIG. 6A is a graph illustrating inactivation of L. innocua in 3-day biofilm after 1-hour exposure: (a) metabolic activity of biofilm; (b) results of plate counting assay
The antimicrobial activity was characterized based on the metabolic activity of the biofilm measured using Resazurin and a plate counting assay.
The metabolic activity of biofilm after a 1-hour exposure to the particulate sanitizer was evaluated. The time required to achieve maximum fluorescence intensity indicated the relative level of metabolic activity of bacterial cells under different incubation conditions. Listeria biofilms that were incubated with PBS were treated as a control. […] The conventional sanitizer (sodium hypochlorite) only achieved 3-log reduction after a 1-hour exposure.
Pre-formed biofilms were treated with either a selected particle-based sanitizer or with a conventional sanitation procedure for the sanitation of a food contract surface. […] Quantification of the treatment was assessed based on measuring the changes in the metabolic activity of bacterial cells. Quantification of the residual biomass was conducted using crystal violet staining and calcofluor labeling and the standard plate counting of the bacterial cells after dispersing the biofilms using an ultrasonic washer.

Test [3] relates to E. coli O157:H7. Put plainly: Inactivation of bacteria on fresh produce (lettuce leaf) surfaces. It counts as cell-based, Escherichia coli O157:H7. The conditions noted are these: Example 2; 20-min exposure, YCWPs@halamine 0.25 mg/ml; sodium hypochlorite 20 ppm free chlorine. How it is done:
FIG. 6B is a graph illustrating inactivation of E. coli O157:H7 on fresh produce surfaces after 20-min exposure to YCWPs@halamine (0.25 mg/ml).
The inactivation of bacteria on fresh produce surfaces was also evaluated. These YCWPs based sanitizer was also found to be effective in causing more than 5 log reductions in E. coli O157:H7 on the surface of lettuce leaves as shown in FIG. 6B. The conventional chlorine-based sanitizer (sodium hypochlorite, 20 ppm free chlorine) achieved less than 2-log reduction of the inoculated bacteria.
To inoculate fresh produce, samples (e.g., spinach, lettuce, tomato, and orange) were first rinsed with 70% ethanol and dried at 25° C. before sample preparation. Fresh produce samples were then prepared by cutting spinach and lettuce leaves into disks with 1 cm of diameter and tomato and orange skins into squares of 9 cm^2. […]
After inoculation and incubation, the meat and fresh produce samples were transferred to a simulated wash bath with added particle-based sanitizers. […] The samples were stirred in a shaking bath a speed of 250 rpm for a pre-determined period (1, 2, 5, and 10 min). […]
To quantify the reduction in microbial count, the samples after treatment were transferred to sterile tubes containing silicon-carbide beads and 10 mL of PBS, and vortexed for 60 seconds to recover the attached bacteria. […]

Here are results for one compound from patent US20200337304A1, “ANTIMICROBIAL PARTICLES AND SANITIZATION METHODS” (priority 2017, published 2020).

As to `OCl` [sodium hypochlorite], in test [1] (COD=2000 mg/L, 20 ppm free chlorine, 20 minutes of exposure), the “reduction of bacterial population in wash water in the presence of organic matter” value is “did not reduce the bacterial population”. For the same compound, in test [1] (simulated wash water), the “time needed to achieve a 5-log reduction of Listeria innocua in wash water” value was 1.5 min. In test [2], the “reduction of the bacterial population in the 3-day biofilm” value came to 3 log. Further, the “reduction in E. coli O157:H7 on the surface of lettuce leaves” value in test [3] was “less than 2 log”.
